Here are results for six compounds from ChEMBL document CHEMBL1201862, “PubChem BioAssay data set” (2004).

SMILES strings stand for the structures. Activity calls are given as the source filed them.

Assay [1] addresses Voltage-gated N-type calcium channel alpha-1B subunit/Amyloid beta A4 precursor protein-binding family A member 1 (Homo sapiens, UniProt Q00975+Q02410). It counts as protein assay.
For a further assay, the target named is Estrogen receptor beta (Homo sapiens, UniProt Q92731).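 Further: recombinant ER-beta bound to coactivator SRC1 peptide in presence of estradiol agonist; inhibitors block coactivator peptide binding and lower the FRET signal.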
Chain of Estrogen receptor beta (Q92731 whole entry): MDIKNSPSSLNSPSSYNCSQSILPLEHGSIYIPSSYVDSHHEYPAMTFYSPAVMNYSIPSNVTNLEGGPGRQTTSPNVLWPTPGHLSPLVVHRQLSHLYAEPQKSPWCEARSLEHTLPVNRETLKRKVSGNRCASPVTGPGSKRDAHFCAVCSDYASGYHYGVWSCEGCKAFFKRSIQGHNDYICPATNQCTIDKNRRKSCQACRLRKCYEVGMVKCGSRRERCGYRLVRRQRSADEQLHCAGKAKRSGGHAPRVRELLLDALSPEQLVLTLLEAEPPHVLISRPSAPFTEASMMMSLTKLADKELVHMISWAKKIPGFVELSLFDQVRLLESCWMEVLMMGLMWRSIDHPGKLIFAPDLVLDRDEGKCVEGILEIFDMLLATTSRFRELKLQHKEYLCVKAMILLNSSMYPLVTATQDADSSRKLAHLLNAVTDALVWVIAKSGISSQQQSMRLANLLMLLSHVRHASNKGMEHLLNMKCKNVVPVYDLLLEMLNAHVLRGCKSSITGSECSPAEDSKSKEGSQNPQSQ
For assay [2], the target named is T1, Short transient receptor potential channel 4 (Mus musculus, UniProt Q9QUQ5).
T1 sequence (Q9QUQ5 whole entry): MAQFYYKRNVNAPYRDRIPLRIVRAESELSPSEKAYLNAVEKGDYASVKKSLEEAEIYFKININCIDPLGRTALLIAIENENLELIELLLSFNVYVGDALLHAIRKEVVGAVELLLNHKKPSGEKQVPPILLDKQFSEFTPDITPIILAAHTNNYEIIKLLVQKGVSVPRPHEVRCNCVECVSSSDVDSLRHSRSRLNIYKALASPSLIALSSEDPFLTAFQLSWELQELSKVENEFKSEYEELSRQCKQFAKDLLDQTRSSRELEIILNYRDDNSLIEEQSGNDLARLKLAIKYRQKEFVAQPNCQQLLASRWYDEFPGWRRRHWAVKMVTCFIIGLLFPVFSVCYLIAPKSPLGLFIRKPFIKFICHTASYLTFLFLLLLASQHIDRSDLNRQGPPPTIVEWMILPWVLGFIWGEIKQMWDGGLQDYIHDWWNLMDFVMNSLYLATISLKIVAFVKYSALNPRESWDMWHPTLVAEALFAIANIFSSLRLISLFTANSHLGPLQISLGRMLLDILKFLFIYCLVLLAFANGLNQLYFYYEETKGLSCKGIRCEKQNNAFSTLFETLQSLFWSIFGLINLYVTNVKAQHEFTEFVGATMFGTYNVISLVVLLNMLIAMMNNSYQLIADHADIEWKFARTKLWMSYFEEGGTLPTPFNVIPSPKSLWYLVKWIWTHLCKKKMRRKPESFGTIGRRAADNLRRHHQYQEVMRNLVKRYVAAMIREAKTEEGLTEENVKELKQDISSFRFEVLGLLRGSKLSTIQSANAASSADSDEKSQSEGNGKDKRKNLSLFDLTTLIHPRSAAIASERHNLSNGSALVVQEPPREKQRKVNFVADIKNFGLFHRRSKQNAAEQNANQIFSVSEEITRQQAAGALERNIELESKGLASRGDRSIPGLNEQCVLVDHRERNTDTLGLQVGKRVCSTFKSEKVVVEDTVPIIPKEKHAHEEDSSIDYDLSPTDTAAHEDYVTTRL
Kind of assay: calcium entry via TRPC4 opening agents – cell-based, HEK293 TRPC4/mu-opioid, Fluo-4 calcium, dose response (AID 434937). In kind it is functional.

Assay [3] concerns the target T2, Tyrosine-protein phosphatase non-receptor type 11 (Homo sapiens, UniProt Q06124).
T2 sequence (Q06124 whole entry): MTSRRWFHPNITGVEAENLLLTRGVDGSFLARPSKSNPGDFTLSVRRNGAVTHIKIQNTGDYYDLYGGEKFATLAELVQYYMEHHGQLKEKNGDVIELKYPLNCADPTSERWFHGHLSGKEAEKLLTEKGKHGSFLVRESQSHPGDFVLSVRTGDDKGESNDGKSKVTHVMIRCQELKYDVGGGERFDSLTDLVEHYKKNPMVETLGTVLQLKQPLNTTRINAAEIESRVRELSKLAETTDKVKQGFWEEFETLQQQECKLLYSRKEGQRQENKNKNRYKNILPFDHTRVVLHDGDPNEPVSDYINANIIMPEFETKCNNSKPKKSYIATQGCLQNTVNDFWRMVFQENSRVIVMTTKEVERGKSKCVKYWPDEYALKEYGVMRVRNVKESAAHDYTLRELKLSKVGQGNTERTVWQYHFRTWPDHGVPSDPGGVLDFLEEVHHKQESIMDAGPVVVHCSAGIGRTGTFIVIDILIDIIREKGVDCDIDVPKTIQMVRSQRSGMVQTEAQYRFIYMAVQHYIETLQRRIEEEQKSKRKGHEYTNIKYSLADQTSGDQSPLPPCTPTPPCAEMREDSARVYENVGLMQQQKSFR
Briefly: PTPN11 enzyme inhibitors – biochemical, selectivity assay for STEP inhibitor project, dose response (AID 602367). In kind it is functional. To be noted: read-out: IC50_Mean.

The target in assay [4] is Serine/threonine-protein phosphatase (Homo sapiens, UniProt Q9BPW0). Kind of assay: inhibition of protein phosphatase 5 activity – biochemical, fluorescence, dose response (AID 2395).
Chain of Serine/threonine-protein phosphatase (Q9BPW0 whole entry): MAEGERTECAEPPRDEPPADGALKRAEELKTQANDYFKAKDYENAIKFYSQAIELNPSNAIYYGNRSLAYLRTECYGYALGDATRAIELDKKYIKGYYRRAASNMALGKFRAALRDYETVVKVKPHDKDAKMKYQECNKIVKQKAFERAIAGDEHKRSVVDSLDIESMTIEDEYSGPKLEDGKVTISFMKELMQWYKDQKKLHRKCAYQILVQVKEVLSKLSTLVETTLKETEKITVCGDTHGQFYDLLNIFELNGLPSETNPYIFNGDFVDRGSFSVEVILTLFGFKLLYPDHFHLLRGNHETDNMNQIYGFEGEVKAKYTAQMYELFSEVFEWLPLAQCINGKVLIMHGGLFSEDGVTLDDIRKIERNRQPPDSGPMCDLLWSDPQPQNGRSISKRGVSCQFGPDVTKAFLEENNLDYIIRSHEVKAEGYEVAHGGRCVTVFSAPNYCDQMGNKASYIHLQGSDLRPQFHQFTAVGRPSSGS
For assay [5], the target named is T3, RNA-binding protein pos-1 (Caenorhabditis elegans, UniProt G5EF15).
T3 sequence (G5EF15 whole entry): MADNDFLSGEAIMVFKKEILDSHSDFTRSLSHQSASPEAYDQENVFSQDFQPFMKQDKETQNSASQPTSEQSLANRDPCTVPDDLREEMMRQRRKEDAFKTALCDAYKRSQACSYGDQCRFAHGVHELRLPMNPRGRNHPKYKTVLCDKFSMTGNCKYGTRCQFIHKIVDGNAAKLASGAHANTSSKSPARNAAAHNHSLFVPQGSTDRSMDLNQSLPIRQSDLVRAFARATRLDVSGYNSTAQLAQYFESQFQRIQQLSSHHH
Briefly: disruptors of C. elegans POS-1 RNA interaction – biochemical, fluorescence polarization, dose response (AID 1964).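 Further: purified POS-1 fused to maltose binding protein made in E. coli; potency of compounds blocking POS-1 binding to fluorescent RNA.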 A general note: Polarisation of emitted light reports the rotation of a fluorescent probe.

Chain of Voltage-gated N-type calcium channel alpha-1B subunit/Amyloid beta A4 precursor protein-binding family A member 1 (Q00975 whole entry): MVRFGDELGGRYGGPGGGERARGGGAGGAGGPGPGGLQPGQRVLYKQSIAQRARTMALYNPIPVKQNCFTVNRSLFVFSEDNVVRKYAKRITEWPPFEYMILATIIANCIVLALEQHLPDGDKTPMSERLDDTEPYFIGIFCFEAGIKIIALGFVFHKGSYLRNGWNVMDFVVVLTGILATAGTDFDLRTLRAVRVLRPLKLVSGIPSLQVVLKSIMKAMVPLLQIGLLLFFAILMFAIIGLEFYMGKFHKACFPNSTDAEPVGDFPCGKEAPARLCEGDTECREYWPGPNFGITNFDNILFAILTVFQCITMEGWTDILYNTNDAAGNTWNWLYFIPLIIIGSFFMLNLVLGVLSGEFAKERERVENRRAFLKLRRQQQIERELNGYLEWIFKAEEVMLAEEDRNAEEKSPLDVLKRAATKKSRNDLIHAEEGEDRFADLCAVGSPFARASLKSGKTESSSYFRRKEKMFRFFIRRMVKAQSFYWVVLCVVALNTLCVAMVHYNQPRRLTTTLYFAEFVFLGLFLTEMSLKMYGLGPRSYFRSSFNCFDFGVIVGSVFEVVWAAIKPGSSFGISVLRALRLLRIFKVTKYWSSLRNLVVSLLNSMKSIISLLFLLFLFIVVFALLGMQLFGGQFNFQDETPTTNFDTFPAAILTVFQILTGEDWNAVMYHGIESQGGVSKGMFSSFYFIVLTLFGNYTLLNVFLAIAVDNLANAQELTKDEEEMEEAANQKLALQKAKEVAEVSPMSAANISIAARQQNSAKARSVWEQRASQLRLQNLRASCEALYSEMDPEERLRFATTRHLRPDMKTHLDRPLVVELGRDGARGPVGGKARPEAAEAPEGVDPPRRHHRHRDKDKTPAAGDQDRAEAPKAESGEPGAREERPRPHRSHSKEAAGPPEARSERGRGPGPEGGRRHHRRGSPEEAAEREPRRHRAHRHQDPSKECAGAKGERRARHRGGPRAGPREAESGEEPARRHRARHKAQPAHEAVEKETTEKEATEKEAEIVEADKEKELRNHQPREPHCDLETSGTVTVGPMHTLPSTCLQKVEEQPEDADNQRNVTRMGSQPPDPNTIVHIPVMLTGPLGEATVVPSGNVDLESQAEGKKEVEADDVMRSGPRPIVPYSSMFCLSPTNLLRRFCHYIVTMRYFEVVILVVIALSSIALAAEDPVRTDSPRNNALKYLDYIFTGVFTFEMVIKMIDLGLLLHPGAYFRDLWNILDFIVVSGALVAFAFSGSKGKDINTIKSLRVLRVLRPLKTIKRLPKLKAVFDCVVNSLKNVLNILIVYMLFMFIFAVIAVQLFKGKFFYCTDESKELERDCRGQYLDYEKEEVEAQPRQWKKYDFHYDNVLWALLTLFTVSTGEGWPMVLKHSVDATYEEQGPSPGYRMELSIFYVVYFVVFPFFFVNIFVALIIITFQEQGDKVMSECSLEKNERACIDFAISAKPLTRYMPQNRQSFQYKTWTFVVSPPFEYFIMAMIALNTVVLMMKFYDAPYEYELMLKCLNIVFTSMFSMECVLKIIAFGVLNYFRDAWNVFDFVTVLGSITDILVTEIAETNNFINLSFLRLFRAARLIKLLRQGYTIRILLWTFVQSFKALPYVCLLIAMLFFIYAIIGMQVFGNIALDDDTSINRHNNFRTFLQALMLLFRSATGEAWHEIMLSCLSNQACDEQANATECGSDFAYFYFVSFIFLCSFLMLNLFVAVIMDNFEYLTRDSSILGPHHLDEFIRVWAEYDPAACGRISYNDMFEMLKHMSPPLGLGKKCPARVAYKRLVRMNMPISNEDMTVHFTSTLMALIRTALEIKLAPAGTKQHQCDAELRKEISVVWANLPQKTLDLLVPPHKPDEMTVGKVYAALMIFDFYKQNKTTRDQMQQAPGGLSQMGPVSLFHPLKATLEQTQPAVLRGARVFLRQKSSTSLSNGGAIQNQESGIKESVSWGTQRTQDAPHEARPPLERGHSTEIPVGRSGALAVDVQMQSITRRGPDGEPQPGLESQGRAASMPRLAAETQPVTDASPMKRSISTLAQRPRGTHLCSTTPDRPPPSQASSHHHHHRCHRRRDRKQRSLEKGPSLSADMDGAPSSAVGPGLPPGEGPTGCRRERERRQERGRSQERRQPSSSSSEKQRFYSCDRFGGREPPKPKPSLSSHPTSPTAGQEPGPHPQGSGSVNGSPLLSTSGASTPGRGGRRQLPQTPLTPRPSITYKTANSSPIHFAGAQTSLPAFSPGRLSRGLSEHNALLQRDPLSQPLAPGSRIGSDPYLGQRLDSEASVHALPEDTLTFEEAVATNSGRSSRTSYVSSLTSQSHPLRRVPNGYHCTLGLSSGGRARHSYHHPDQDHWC
Chain of Voltage-gated N-type calcium channel alpha-1B subunit/Amyloid beta A4 precursor protein-binding family A member 1 (Q02410 whole entry): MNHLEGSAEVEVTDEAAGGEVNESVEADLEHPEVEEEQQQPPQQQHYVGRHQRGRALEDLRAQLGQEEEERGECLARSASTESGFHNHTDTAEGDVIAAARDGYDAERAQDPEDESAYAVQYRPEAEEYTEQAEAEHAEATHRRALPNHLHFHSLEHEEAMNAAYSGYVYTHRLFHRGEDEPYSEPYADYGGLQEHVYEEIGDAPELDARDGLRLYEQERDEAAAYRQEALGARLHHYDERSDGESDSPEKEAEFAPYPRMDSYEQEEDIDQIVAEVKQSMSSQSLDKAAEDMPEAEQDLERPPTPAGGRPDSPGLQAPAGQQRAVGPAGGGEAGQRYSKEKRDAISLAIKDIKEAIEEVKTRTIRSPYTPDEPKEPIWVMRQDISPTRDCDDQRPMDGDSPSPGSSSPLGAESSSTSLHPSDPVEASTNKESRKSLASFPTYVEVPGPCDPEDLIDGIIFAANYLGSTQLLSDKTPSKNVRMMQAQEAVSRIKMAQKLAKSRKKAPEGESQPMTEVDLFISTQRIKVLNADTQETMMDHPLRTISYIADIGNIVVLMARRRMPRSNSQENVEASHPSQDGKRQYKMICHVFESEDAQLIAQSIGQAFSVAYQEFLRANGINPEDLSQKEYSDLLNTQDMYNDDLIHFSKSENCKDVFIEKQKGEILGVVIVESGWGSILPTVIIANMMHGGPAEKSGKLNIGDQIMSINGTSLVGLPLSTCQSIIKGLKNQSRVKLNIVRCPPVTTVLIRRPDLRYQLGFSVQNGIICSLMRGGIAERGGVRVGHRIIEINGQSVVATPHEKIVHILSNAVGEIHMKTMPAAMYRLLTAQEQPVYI

For `O=C(O)COc1ccc(/C=N/NC(=O)c2ccc(-c3csc(Nc4ccc(Cl)cc4)n3)cc2)cc1`, the IC50 in assay [1] is 10.1 µM (active).
Take `COc1ccc(C(=O)Nc2nc3c(s2)Cc2cc(OC)ccc2-3)cc1`: the IC50 at Estrogen receptor beta is given as > 50 µM (not active).
Take `CCN1/C(=C/c2ccc3cc(C)ccc3[n+]2CC)Sc2cc(C)c(C)cc21`: the EC50 (in general, the concentration at which the effect is half-maximal) in assay [2] is 11.9 µM (active).
Regarding `CSc1ccc(C=NNc2ccc(S(=O)(=O)Nc3ccccc3C(=O)O)cc2[N+](=O)[O-])cc1`, the IC50 in assay [3] is 1.11 µM (active).
In the case of `O=C1CCCC2=C1C1(O)C(=O)c3ccccc3C1(O)O2` (stereo unspecified), in assay [4], the IC50 is > 0.828 µM (active).
In the case of `Nc1ccc2nc3c(O)nc(S)nc3nc2c1`, the EC50 in assay [5] is 7.85 µM (inconclusive).
